From publication PMC6941952, “A homogeneous bioluminescent immunoassay to probe cellular signaling pathway regulation” (Communications Biology, 2020)
“And” between values parts separate entries of the source, which are not always exact repeats. Equal values may be shown once.

Test system: total IκBα
Assay: NanoBiT cell-based immunoassay, total IκBα in human primary mammary epithelial cells;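 note: TNFα at 50 ng per ml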
Details: for Total IkB Average: background subtracted; for Total IkB Raw data / Total IkB Subtract reagent background: listed as TNF
Method: All cell lines used are from ATCC. […] Human Primary Mammary Epithelial Cells (#H-6035), Human Breast Tumor Epithelial Cells (#HC-6035), Complete Human Epithelial Cell Medium (#H6621), and Gelatin-Based Coating Solution (#H6950) were purchased from Cell Biologics. The cells were cultured according to the manufacturer’s procedure. All cells were grown at 37 °C in a 5% CO2 humidified incubator and passaged before reaching 80% cell confluency. Prior to each experiment, cells were counted by combining 30 µl of cell suspension with 30 µl of trypan blue. After gentle pipetting up and down to mix the cells and the dye, the cell number was determined using Bio-Rad TC 20 cell counter.
Prior to NanoBiT Cell-Based Immunoassay, 50,000 cells were seeded in 160 µl of complete growth media per well of a 96-well plate and incubated overnight. The cells were checked under microscope and it was determined that 50,000 cells per well in 96-well plate is under 90% confluency for all cells tested. If necessary, the cell culture media were replaced with serum-free media after the cells were stably adherent on the plate and incubated overnight. To treat cells with activators or inhibitors, medium was changed to 30 µl of medium containing inhibitors. If activation of a specific pathway is needed, the cells were stimulated with 10 µl of medium containing activators. To lyse the cells, 10 µl of lysis buffer containing 0.1% digitonin diluted in 1X immunoassay buffer with protease and phosphatase inhibitors was added and the plates were mixed vigorously for 20 min. Then, 50 µl of an antibody mix containing two primary antibodies against the target protein and NanoBiT detecting antibodies (0.3 µl each per well), diluted in 1X immunoassay buffer was added to the lysates. The plates were incubated at 23 °C for 90 min, followed by the addition of 25 µl of Nano-Glo® reagent consisting of Nano-Glo® Luciferase Assay Substrate mixed with 1X immunoassay buffer. Luminescence was measured using a plate-reading luminometer.
Single dose or dose response inhibitor treatments were performed prior to activation of the pathways as follows. For IκBα, the cells were treated in 30 µl medium with IKK16 or MG132 for 60 min before the addition of 10 µl of DMEM containing appropriate concentration of TNFα. To measure phosphorylation of AKT or STAT3, the corresponding NanoBiT immunoassays were developed with MCF-7 or A431 cells, respectively, according the same scheme used to develop the IκBα assay using the primary antibodies for AKT and STAT3 described in the reagents section. For the AKT assay, MCF-7 cells were incubated overnight in phenol-red free DMEM medium (Gibco #21063-029) without serum. Treatment with LY294002 was performed in 30 µl medium and cells were incubated for 60 min before the addition of 1 µM Insulin. To measure STAT3 phosphorylation, A431 cells were incubated overnight in DMEM medium without serum. […] After addition of the stimulators, the cells were incubated for additional times as follows. IκBα phosphorylation and degradation analyses required both time courses and single time points as described in figures. […] The NanoBiT immunoassay protocol was followed as described above.
All 96-well assay plates were read using a GloMax® 96 Microplate Luminometer from Promega. The instrument was set to 0.5 s integration time. In order to obtain net change of signal, the reagent background values (signal from the well containing all reagent except primary antibodies) were subtracted from the sample values. To plot and analyze the data, Microsoft Excel and GraphPad Prism® Software were used. IC50 values were determined by using a nonlinear regression fit to a sigmoidal dose response (variable slope).

## TNFα
TNF 2 min
  Total IkB Average: 18292
  Total IkB Raw data: 29190 and 27950 and 27350
  Total IkB Subtract reagent background: 19319 and 18079 and 17479
TNF 4 min
  Total IkB Average: 16139
  Total IkB Raw data: 26330 and 26760 and 24940
  Total IkB Subtract reagent background: 16459 and 16889 and 15069
TNF 6 min
  Total IkB Average: 13185
  Total IkB Raw data: 23190 and 23370 and 22610
  Total IkB Subtract reagent background: 13319 and 13499 and 12739
TNF 8 min
  Total IkB Average: 9145
  Total IkB Raw data: 19430 and 18940 and 18680
  Total IkB Subtract reagent background: 9559 and 9069 and 8809
TNF 10 min
  Total IkB Average: 6539
  Total IkB Raw data: 16860 and 16350 and 16020
  Total IkB Subtract reagent background: 6989 and 6479 and 6149
TNF 12 min
  Total IkB Average: 4795
  Total IkB Raw data: 14910 and 14630 and 14460
  Total IkB Subtract reagent background: 5039 and 4759 and 4589
TNF 15 min
  Total IkB Average: 3099
  Total IkB Raw data: 13120 and 12980 and 12810
  Total IkB Subtract reagent background: 3249 and 3109 and 2939
TNF 30 min
  Total IkB Average: 3035
  Total IkB Raw data: 13030 and 12940 and 12750
  Total IkB Subtract reagent background: 3159 and 3069 and 2879
TNF 45 min
  Total IkB Average: 5225
  Total IkB Raw data: 15670 and 15120 and 14500
  Total IkB Subtract reagent background: 5799 and 5249 and 4629
TNF 60 min
  Total IkB Average: 7062
  Total IkB Raw data: 16790 and 17170 and 16840
  Total IkB Subtract reagent background: 6919 and 7299 and 6969
